# Data as given in US8207221B2, “Crystalline polymorphs of a CXC-chemokine receptor ligand” (Schering Corporation, priority 2004, dated 2012).
# System: CXC-chemokine receptor
# Assay: activity as a CXC-chemokine receptor ligand
# Details: qualitative statement, no method or figures given
row,activity as a CXC-chemokine receptor ligand,SMILES
1,particularly active,CC[C@@H](Nc1c(Nc2cccc(C(=O)N(C)C)c2O)c(=O)c1=O)c1ccc(C)o1 [Anhydrous Compound A]
2,substantially similar activity,CC[C@@H](Nc1c(Nc2cccc(C(=O)N(C)C)c2O)c(=O)c1=O)c1ccc(C)o1 [monohydrate form of Compound A]
